How the values were obtained:
lung cancer cells A549 = experiment: Cytotoxicity on A549, CellTiter Glo viability after 72 h; format: cell-based; conditions: Homo sapiens, A549, 72 h
Method: (§1) The lines U87-MG and A549 were obtained from the American Type Culture Collection (Rockville, MD, USA) and were cultured according to the supplier's instructions. The human glioblastoma cells U87-MG were cultured in Dulbecco […] (DMEM) containing 10% of FCS and 1% of L-glutamine. The lung cancer cells A549 were cultured in RPMI1640 medium containing 10% of FCS and 1% of L-glutamine. The cell lines were maintained at 37° C. in a humidified atmosphere containing 5% CO2. The products were tested at 10 concentrations in triplicate and the cellular viability was evaluated after 72 h of treatment using the CellTiter Glo assay (Promega), which allows the number of live cells to be measured by luminescence (quantification of ATP).
(§2) Thus, the cells were seeded in 96-well plates (2.5×10^3 cells/well) each containing 90 μL of growth medium. After culture for 24 hours, the wells were supplemented with 10 μL of medium containing ten decreasing concentrations of the test compound dissolved in DMSO (less than 0.1% in each preparation). After incubation for 72 h, 100 μL of Cell Titer GLo reagent was added in the space of 15 min before quantifying the luminescence emitted using a microplate reader. The dose-response curve was analyzed using Graph Prism software and the activity of the molecules is expressed in the form of IC50.

[1] = test system: human glioblastoma cells U87-MG; experiment: Cytotoxicity on U87-MG, CellTiter Glo viability after 72 h; format: cell-based; conditions: U-87 MG
Method: as §1, §2

[2] = target: ORD domain (OSBP-Related Domain) of the protein OSBP (Homo sapiens (Human), UniProt P22059); experiment: Inhibition of DHE transport between liposomes catalyzed by the purified ORD domain of OSBP (FRET, robotized assay); format: biochemical; conditions: purified ORD domain 200 nM, liposomes 130 μM, 37° C., compound 50 nM to 3 μM, triplicate; read-out: Affinity for the target OSBP (Ki)
ORD domain (OSBP-Related Domain) of the protein OSBP, sequence (P22059 401-807): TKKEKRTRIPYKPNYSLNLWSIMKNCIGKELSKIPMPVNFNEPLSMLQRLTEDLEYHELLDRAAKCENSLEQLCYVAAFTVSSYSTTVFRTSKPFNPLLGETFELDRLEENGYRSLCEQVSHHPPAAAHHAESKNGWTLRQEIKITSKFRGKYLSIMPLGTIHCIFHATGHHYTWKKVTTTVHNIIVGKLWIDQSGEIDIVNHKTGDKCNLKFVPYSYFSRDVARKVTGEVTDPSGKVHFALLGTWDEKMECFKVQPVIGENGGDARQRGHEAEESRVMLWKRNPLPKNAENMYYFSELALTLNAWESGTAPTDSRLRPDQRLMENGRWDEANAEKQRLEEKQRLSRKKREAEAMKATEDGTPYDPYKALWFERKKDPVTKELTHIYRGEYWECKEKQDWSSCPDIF
Method: Measurement of the inhibitory activity on OSBP is carried out by a robotized assay in the ORD domain (OSBP-Related Domain, in English) purified of the protein OSBP. The measurements are carried out according to a protocol using two preparations of liposomes: • The donor liposomes (A) contain a fluorescent sterol (DHE (dehydroergosterol)); • The acceptor liposomes (B) contain a fluorescent lipid (dansyl PE (1,2-dioleoyl-sn-glycero-3-phosphoethanolamine-N-(5-dimethylamino-1-naphthalenesulfonyl) (ammonium salt)) whose excitation spectrum covers the emission spectrum of DHE.
Transport of DHE from liposomes A to liposomes B catalyzed by the ORD domain is accompanied by a FRET signal between DHE and Dansyl-PE. Based on this signal, the kinetics of transport can be measured in real time. This measurement of fluorescence is carried out on a microplate in a TECAN Infinite 1000 Pro instrument (temperature=37° C.). At the beginning, each measurement well contains liposomes B (130 μM), ORD domain (200 nM) and the test compound. At time t=5 min, liposomes A (130 μM) are added to start the exchange reaction. Each compound is tested in triplicate for final concentrations from 50 nM to 3 μM. The time constant (k) obtained for the kinetics in each case is then represented as a function of the concentration of the analog. From this representation, an inhibition constant is determined for each compound. The affinity constants Ki are classified as follows: • Very strong affinity Ki<10 nM • Good affinity Ki from 10 to 100 nM • Low affinity Ki from 100 to 2000 nM
The compounds, other than the prodrugs, having a Ki<100 nM are regarded as active on OSBP.

[3] = Stability in mouse plasma (UPLC-MS/MS); format: in vitro ADME; conditions: 2.5 μM
Method: (§3) The compounds are placed in mouse plasma and mouse microsomes, and their stability is evaluated by monitoring by UPLC-MS/MS.
(§4) For plasma stability, the concentration tested is 2.5 μM and the incubation volume is 50 μL. The incubation times are 0, 15, 30, 45, 60 and 120 minutes. Protein precipitation is then performed on the samples, and then the latter are analyzed by UPLC-MS/MS. The percentage of the compound remaining as well as its elimination half-life are thus obtained. For the metabolic stability in microsomes, the concentration of test compound is 2.5 μM, and the incubation volume is 400 μL. The concentration of mouse microsomes is 0.5 mg/mL. The incubation times are 0, 15, 30 and 45 minutes. The cofactor used is NADPH. Two negative controls are carried out, one without microsomes and without cofactor at 0 and 45 minutes, and one without cofactor and with microsome at 0 and 45 minutes. A positive control is carried out in the presence of diphenhydramine. The samples are analyzed by LC-MS/MS. The intrinsic clearance and the half-life are thus obtained.
(§5) LC-MS/MS is carried out on a UPLC Acquity™ coupled to a XEVO TQ-S(WATERS).
(§6) Liquid chromatography is carried out on an Acquity UPLC column BEH 1.7 μm, 2.1×50 mm with a gradient of 4 minutes water+0.1% […]/acetonitrile 95:5 to 100:0. The column temperature is +50° C. and the temperature of the injector is +4° C. Acquisition in mass spectrometry is performed by MRM (Multiple Reaction Monitoring), with positive electrospray ionization.

[4] = Metabolic stability in mouse hepatic microsomes (LC-MS/MS); format: in vitro ADME; conditions: mouse microsomes 0.5 mg/mL, 2.5 μM, NADPH
Method: as §3, §4, §5, §6

Row | Ki [2] | metabolic stability in mouse plasma at 120 minutes (percentage of compound remaining) [3] | clearance in microsomal medium (intrinsic clearance) [4] | metabolic stability in mouse microsomes [4] | SMILES | IC50 (lung cancer cells A549) | IC50 [1]
1 | < 10 nM | – | – | – | COCOc1cc2oc(-c3ccccc3)cc(=O)c2c2c1C[C@@H]1C(C)(C)[C@H](O)CC[C@@]1(C)O2 (racemic) [Compound 1, (7aR*9R*,11aR*)-9-hydroxy-6-(methoxymethoxy)-8,8,11a-trimethyl-3-phenyl-7a,8,9,10,11,11a-hexahydro-1H,7H-pyrano[2,3-c]xanthen-1-one] | 5080 nM | 540 nM
2 | 100 to 2000 nM | – | – | – | COCOc1cc2oc(-c3ccccc3)cc(=O)c2c2c1C[C@@H]1C(C)(C)[C@H](OCOC)CC[C@@]1(C)O2 (racemic) [Compound 2, (7aR*,9R*,11aR*)-6,9-bis(methoxymethoxy)-8,8,11a-trimethyl-3-phenyl-7a,8,9,10,11,11a-hexahydro-1H,7H-pyrano[2,3-c]xanthen-1-one] | > 10000 nM | > 10000 nM
3 | < 10 nM | 99% | 152 μL/min/mg of protein | 88% | CC1(C)[C@H](O)CC[C@@]2(C)Oc3c(c(O)cc4oc(-c5ccccc5)cc(=O)c34)C[C@H]12 (racemic) [Compound 3, (7aR*,9R*,11aR*)-6,9-dihydroxy-8,8,11a-trimethyl-3-phenyl-7a,8,9,10,11,11a-hexahydro-1H,7H-pyrano[2,3-c]xanthen-1-one] | 3400 nM | 340 nM
4 | 10 to 100 nM | – | – | – | COCOc1cc2oc(-c3ccccc3)cc(=O)c2c2c1C[C@@H]1C(C)(C)[C@H](O)CC[C@@]1(C)O2 [Compound 4, (7aR,9R,11aR)-9-hydroxy-6-(methoxymethoxy)-8,8,11a-trimethyl-3-phenyl-7a,8,9,10,11,11a-hexahydro-1H,7H-pyrano[2,3-c]xanthen-1-one] | – | 440 nM
5 | < 10 nM | – | – | – | CC1(C)[C@H](O)CC[C@@]2(C)Oc3c(c(O)cc4oc(-c5ccccc5)cc(=O)c34)C[C@H]12 [Compound 5, (7aR,9R,11aR)-6,9-dihydroxy-8,8,11a-trimethyl-3-phenyl-7a,8,9,10,11,11a-hexahydro-1H,7H-pyrano[2,3-c]xanthen-1-one] | 1380 nM | 280 nM
6 | 100 to 2000 nM | – | – | – | COCOc1cc2oc(-c3ccccc3)cc(=O)c2c2c1C[C@H]1C(C)(C)[C@@H](O)CC[C@]1(C)O2 [Compound 6, (7aS,9S,11aS)-9-hydroxy-6-(methoxymethoxy)-8,8,11a-trimethyl-3-phenyl-7a,8,9,10,11,11a-hexahydro-1H,7H-pyrano[2,3-c]xanthen-1-one] | > 10000 nM | 4310 nM
7 | < 10 nM | – | – | – | CC1(C)[C@@H](O)CC[C@]2(C)Oc3c(c(O)cc4oc(-c5ccccc5)cc(=O)c34)C[C@@H]12 [Compound 7, (7aS,9S,11aS)-6,9-dihydroxy-8,8,11a-trimethyl-3-phenyl-7a,8,9,10,11,11a-hexahydro-1H,7H-pyrano[2,3-c]xanthen-1-one] | – | 1890 nM
8 | 10 to 100 nM | – | – | – | COCOc1ccc(-c2cc(=O)c3c4c(c(OCOC)cc3o2)C[C@@H]2C(C)(C)[C@H](O)CC[C@@]2(C)O4)cc1 [Compound 8, (7aR,9R,11aR)-9-hydroxy-6-(methoxymethoxy)-3-(4-(methoxymethoxy)phenyl)-8,8,11a-trimethyl-7a,8,9,10,11,11a-hexahydro-1H,7H-pyrano[2,3-c]xanthen-1-one] | – | 160 nM
9 | – | 100% | 26 μL/min/mg of protein | 100% | CC1(C)[C@H](O)CC[C@@]2(C)Oc3c(c(O)cc4oc(-c5ccc(O)cc5)cc(=O)c34)C[C@H]12 [Compound 9, (7aR,9R,11aR)-6,9-dihydroxy-3-(4-hydroxyphenyl)-8,8,11a-trimethyl-7a,8,9,10,11,11a-hexahydro-1H,7H-pyrano[2,3-c]xanthen-1-one] | – | 3780 nM
10 | – | 90% | 52 μL/min/mg of protein | 99% | COCOc1ccc(-c2oc3cc(OCOC)c4c(c3c(=O)c2OCOC)O[C@]2(C)CC[C@@H](O)C(C)(C)[C@H]2C4)cc1 [Compound 10, (7aR,9R,11aR)-9-hydroxy-2,6-bis(methoxymethoxy)-3-(4-(methoxymethoxy)phenyl). 8,8,11a-trimethyl-7a,8,9,10,11,11a-hexahydro-1H,7H-pyrano[2,3-c]xanthen-1-one] | – | 4340 nM
11 | – | – | – | – | CC1(C)[C@H](O)CC[C@@]2(C)Oc3c(c(O)cc4oc(-c5ccc(O)cc5)c(O)c(=O)c34)C[C@H]12 [Compound 11, (7aR,9R,11aR)-2,6,9-trihydroxy-3-(4-hydroxyphenyl)-8,8,11a-trimethyl-7a,8,9,10,11,11a-hexahydro-1H,7H-pyrano[2,3-c]xanthen-1-one] | 6300 nM | 2300 nM
